Converted amounts (≈) assume the structure as drawn.
Legend:
Type in all cases: functional
Staphylococcus aureus [1] = experiment: Antimicrobial activity against Staphylococcus aureus ATCC 6538 after 18 hrs by twofold serial broth dilution method; details: ATCC 6538, 18 h
Staphylococcus aureus [2] = experiment: Antimicrobial activity against Staphylococcus aureus […] after 18 hrs by twofold serial broth dilution method
[3] = tested on: Staphylococcus epidermidis; experiment: Antimicrobial activity against Staphylococcus epidermidis ATCC 12228 after 18 hrs by twofold serial broth dilution method; details: ATCC 12228, 18 h
Escherichia coli [4] = experiment: Antimicrobial activity against Escherichia coli ATCC 10538 after 18 hrs by twofold serial broth dilution method; details: ATCC 10538, 18 h
Escherichia coli [5] = experiment: Antimicrobial activity against Escherichia coli ATCC 25922 after 18 hrs by twofold serial broth dilution method; details: ATCC 25922, 18 h
Escherichia coli [6] = experiment: Antimicrobial activity against Escherichia coli NCTC 8196 after 18 hrs by twofold serial broth dilution method; details: NCTC 8196, 18 h
Pseudomonas aeruginosa [7] = experiment: Antimicrobial activity against Pseudomonas aeruginosa ATCC 15442 after 18 hrs by twofold serial broth dilution method; details: ATCC 15442, 18 h
Pseudomonas aeruginosa [8] = experiment: Antimicrobial activity against Pseudomonas aeruginosa NCTC 6749 after 18 hrs by twofold serial broth dilution method; details: NCTC 6749, 18 h
Pseudomonas aeruginosa [9] = experiment: Antimicrobial activity against Pseudomonas aeruginosa ATCC 27853 after 18 hrs by twofold serial broth dilution method; details: ATCC 27853, 18 h
Bacillus anthracis = experiment: Antimicrobial activity against Bacillus anthracis 34F2 after 18 hrs by twofold serial broth dilution method; details: 34F2, 18 h
Staphylococcus aureus [10] = experiment: Bactericidal activity against Staphylococcus aureus NCTC 4163 after 24 hrs; details: NCTC 4163, 24 h, read-out: MBC99.9
Staphylococcus aureus [11] = experiment: Bactericidal activity against Staphylococcus aureus ATCC 25923 after 24 hrs; details: ATCC 25923, 24 h, read-out: MBC99.9
Staphylococcus aureus [12] = experiment: Bactericidal activity against Staphylococcus aureus ATCC 6538 after 24 hrs; details: ATCC 6538, 24 h, read-out: MBC99.9
Staphylococcus aureus [13] = experiment: Bactericidal activity against Staphylococcus aureus […] after 24 hrs; details: read-out: MBC99.9
[14] = tested on: Staphylococcus epidermidis; experiment: Bactericidal activity against Staphylococcus epidermidis ATCC 12228 after 24 hrs; details: ATCC 12228, 24 h, read-out: MBC99.9
Escherichia coli [15] = experiment: Bactericidal activity against Escherichia coli ATCC 25922 after 24 hrs; details: ATCC 25922, 24 h, read-out: MBC99.9
Escherichia coli [16] = experiment: Bactericidal activity against Escherichia coli NCTC 8196 after 24 hrs; details: NCTC 8196, 24 h, read-out: MBC99.9
Pseudomonas aeruginosa [17] = experiment: Bactericidal activity against Pseudomonas aeruginosa ATCC 15442 after 24 hrs; details: ATCC 15442, 24 h, read-out: MBC99.9
Pseudomonas aeruginosa [18] = experiment: Bactericidal activity against Pseudomonas aeruginosa NCTC 6749 after 24 hrs; details: NCTC 6749, 24 h, read-out: MBC99.9
Pseudomonas aeruginosa [19] = experiment: Bactericidal activity against Pseudomonas aeruginosa ATCC 27853 after 24 hrs; details: ATCC 27853, 24 h, read-out: MBC99.9
[20] = tested on: Staphylococcus epidermidis; experiment: Antimicrobial activity against methicillin-resistant Staphylococcus epidermidis isolate 404/10 after 18 hrs by twofold serial broth dilution method; details: isolate 404/10, 18 h
[21] = tested on: Staphylococcus epidermidis; experiment: Antimicrobial activity against methicillin-resistant Staphylococcus epidermidis isolate 407/10 after 18 hrs by twofold serial broth dilution method; details: isolate 407/10, 18 h
[22] = tested on: Staphylococcus epidermidis; experiment: Antimicrobial activity against methicillin-resistant Staphylococcus epidermidis isolate 409/10 after 18 hrs by twofold serial broth dilution method; details: isolate 409/10, 18 h
[23] = tested on: Staphylococcus epidermidis; experiment: Antimicrobial activity against methicillin-resistant Staphylococcus epidermidis isolate 422/10 after 18 hrs by twofold serial broth dilution method; details: isolate 422/10, 18 h
[24] = tested on: Staphylococcus epidermidis; experiment: Antimicrobial activity against methicillin-resistant Staphylococcus epidermidis isolate 454/11 after 18 hrs by twofold serial broth dilution method; details: isolate 454/11, 18 h
[25] = tested on: Staphylococcus epidermidis; experiment: Antimicrobial activity against methicillin-resistant Staphylococcus epidermidis isolate 455/11 after 18 hrs by twofold serial broth dilution method; details: isolate 455/11, 18 h
[26] = tested on: Staphylococcus epidermidis; experiment: Antimicrobial activity against methicillin-resistant Staphylococcus epidermidis isolate 457/11 after 18 hrs by twofold serial broth dilution method; details: isolate 457/11, 18 h
[27] = tested on: Staphylococcus epidermidis; experiment: Antimicrobial activity against methicillin-resistant Staphylococcus epidermidis isolate 459/11 after 18 hrs by twofold serial broth dilution method; details: isolate 459/11, 18 h
[28] = tested on: Staphylococcus epidermidis; experiment: Antimicrobial activity against methicillin-resistant Staphylococcus epidermidis isolate 461/11 after 18 hrs by twofold serial broth dilution method; details: isolate 461/11, 18 h
[29] = tested on: Staphylococcus epidermidis; experiment: Antimicrobial activity against methicillin-resistant Staphylococcus epidermidis isolate 469/11 after 18 hrs by twofold serial broth dilution method; details: isolate 469/11, 18 h
[30] = tested on: Staphylococcus epidermidis; experiment: Antimicrobial activity against methicillin-resistant Staphylococcus epidermidis isolate 470/11 after 18 hrs by twofold serial broth dilution method; details: isolate 470/11, 18 h
[31] = tested on: Staphylococcus epidermidis; experiment: Bactericidal activity against methicillin-resistant Staphylococcus epidermidis isolate 403/10 after 24 hrs; details: isolate 403/10, 24 h, read-out: MBC99.9
[32] = tested on: Staphylococcus epidermidis; experiment: Bactericidal activity against methicillin-resistant Staphylococcus epidermidis isolate 404/10 after 24 hrs; details: isolate 404/10, 24 h, read-out: MBC99.9
[33] = tested on: Staphylococcus epidermidis; experiment: Bactericidal activity against methicillin-resistant Staphylococcus epidermidis isolate 405/10 after 24 hrs; details: isolate 405/10, 24 h, read-out: MBC99.9
[34] = tested on: Staphylococcus epidermidis; experiment: Bactericidal activity against methicillin-resistant Staphylococcus epidermidis isolate 407/10 after 24 hrs; details: isolate 407/10, 24 h, read-out: MBC99.9
[35] = tested on: Staphylococcus epidermidis; experiment: Bactericidal activity against methicillin-resistant Staphylococcus epidermidis isolate 424/10 after 24 hrs; details: isolate 424/10, 24 h, read-out: MBC99.9
[36] = tested on: Staphylococcus epidermidis; experiment: Bactericidal activity against methicillin-resistant Staphylococcus epidermidis isolate 454/11 after 24 hrs; details: isolate 454/11, 24 h, read-out: MBC99.9
[37] = tested on: Staphylococcus epidermidis; experiment: Bactericidal activity against methicillin-resistant Staphylococcus epidermidis isolate 455/11 after 24 hrs; details: isolate 455/11, 24 h, read-out: MBC99.9
[38] = tested on: Staphylococcus epidermidis; experiment: Bactericidal activity against methicillin-resistant Staphylococcus epidermidis isolate 457/11 after 24 hrs; details: isolate 457/11, 24 h, read-out: MBC99.9
[39] = tested on: Staphylococcus epidermidis; experiment: Bactericidal activity against methicillin-resistant Staphylococcus epidermidis isolate 458/11 after 24 hrs; details: isolate 458/11, 24 h, read-out: MBC99.9
[40] = tested on: Staphylococcus epidermidis; experiment: Bactericidal activity against methicillin-resistant Staphylococcus epidermidis isolate 459/11 after 24 hrs; details: isolate 459/11, 24 h, read-out: MBC99.9
[41] = tested on: Staphylococcus epidermidis; experiment: Bactericidal activity against methicillin-resistant Staphylococcus epidermidis isolate 461/11 after 24 hrs; details: isolate 461/11, 24 h, read-out: MBC99.9
[42] = tested on: Staphylococcus epidermidis; experiment: Bactericidal activity against methicillin-resistant Staphylococcus epidermidis isolate 469/11 after 24 hrs; details: isolate 469/11, 24 h, read-out: MBC99.9

For CC[C@@H](C(=O)[C@@H](C)[C@@H](O)[C@H](C)[C@@H]1O[C@@H]([C@@H](CC)C(=O)N(CCO)CCO)CC[C@@H]1C)[C@H]1O[C@]2(C=C[C@@H](O)[C@]3(CC[C@@](C)([C@H]4CC[C@](O)(CC)[C@H](C)O4)O3)O2)[C@H](C)C[C@@H]1C, the MIC (Staphylococcus aureus [1]) was 4 µg/mL (≈ 4.77 µM), the MIC (Staphylococcus aureus [2]) was 4 µg/mL (≈ 4.77 µM) and the MIC [3] was 4 µg/mL (≈ 4.77 µM). The MIC (Escherichia coli [4]) was over 256 µg/mL, the MIC (Escherichia coli [5]) was over 256 µg/mL and the MIC (Escherichia coli [6]) was over 256 µg/mL. The MIC (Pseudomonas aeruginosa [7]) was over 256 µg/mL, the MIC (Pseudomonas aeruginosa [8]) was over 256 µg/mL and the MIC (Pseudomonas aeruginosa [9]) was over 256 µg/mL. The MIC (Bacillus anthracis) was 2 µg/mL (≈ 2.39 µM), the MBC (Staphylococcus aureus [10]) was 256 µg/mL (≈ 305 µM) and the MBC (Staphylococcus aureus [11]) was 256 µg/mL (≈ 305 µM). The MBC (Staphylococcus aureus [12]) was 256 µg/mL (≈ 305 µM), the MBC (Staphylococcus aureus [13]) was 128 µg/mL (≈ 153 µM) and the MBC [14] was 256 µg/mL (≈ 305 µM). The MBC (Escherichia coli [15]) was over 256 µg/mL, the MBC (Escherichia coli [16]) was over 256 µg/mL and the MBC (Pseudomonas aeruginosa [17]) was over 256 µg/mL. For the same compound, the MBC (Pseudomonas aeruginosa [18]) was over 256 µg/mL, the MBC (Pseudomonas aeruginosa [19]) was over 256 µg/mL and the MIC [20] was 4 µg/mL (≈ 4.77 µM). The MIC [21] was 4 µg/mL (≈ 4.77 µM), the MIC [22] was 8 µg/mL (≈ 9.55 µM) and the MIC [23] was 2 µg/mL (≈ 2.39 µM). It also gave an MIC [24] of 2 µg/mL (≈ 2.39 µM), an MIC [25] of 4 µg/mL (≈ 4.77 µM) and an MIC [26] of 4 µg/mL (≈ 4.77 µM). It also gave an MIC [27] of 4 µg/mL (≈ 4.77 µM), an MIC [28] of 4 µg/mL (≈ 4.77 µM) and an MIC [29] of 4 µg/mL (≈ 4.77 µM). It also gave an MIC [30] of 4 µg/mL (≈ 4.77 µM), an MBC [31] of 128 µg/mL (≈ 153 µM) and an MBC [32] of 256 µg/mL (≈ 305 µM). The MBC [33] was 128 µg/mL (≈ 153 µM), the MBC [34] was 128 µg/mL (≈ 153 µM) and the MBC [35] was 128 µg/mL (≈ 153 µM). The MBC [36] was 128 µg/mL (≈ 153 µM), the MBC [37] was 256 µg/mL (≈ 305 µM) and the MBC [38] was 256 µg/mL (≈ 305 µM). For the same compound, the MBC [39] was 128 µg/mL (≈ 153 µM), the MBC [40] was 256 µg/mL (≈ 305 µM) and the MBC [41] was 128 µg/mL (≈ 153 µM). The MBC [42] was 256 µg/mL (≈ 305 µM).

Compound CCCCCCCCN(CCCCCCCC)C(=O)[C@H](CC)[C@H]1CC[C@H](C)[C@H]([C@@H](C)[C@H](O)[C@H](C)C(=O)[C@H](CC)[C@H]2O[C@]3(C=C[C@@H](O)[C@]4(CC[C@@](C)([C@H]5CC[C@](O)(CC)[C@H](C)O5)O4)O3)[C@H](C)C[C@@H]2C)O1 has an MIC (Staphylococcus aureus [1]) of 128 µg/mL (≈ 131 µM), an MIC (Staphylococcus aureus [2]) of 256 µg/mL (≈ 263 µM) and an MIC [3] of 128 µg/mL (≈ 131 µM). It also gave an MIC (Escherichia coli [4]) of over 256 µg/mL, an MIC (Escherichia coli [5]) of over 256 µg/mL and an MIC (Escherichia coli [6]) of over 256 µg/mL. For the same compound, the MIC (Pseudomonas aeruginosa [7]) was over 256 µg/mL, the MIC (Pseudomonas aeruginosa [8]) was over 256 µg/mL and the MIC (Pseudomonas aeruginosa [9]) was over 256 µg/mL. For the same compound, the MIC (Bacillus anthracis) was 64 µg/mL (≈ 65.7 µM), the MBC (Staphylococcus aureus [10]) was over 256 µg/mL and the MBC (Staphylococcus aureus [11]) was over 256 µg/mL. The MBC (Staphylococcus aureus [12]) was over 256 µg/mL, the MBC (Staphylococcus aureus [13]) was over 256 µg/mL and the MBC [14] was over 256 µg/mL. It also gave an MBC (Escherichia coli [15]) of over 256 µg/mL, an MBC (Escherichia coli [16]) of over 256 µg/mL and an MBC (Pseudomonas aeruginosa [17]) of over 256 µg/mL. For the same compound, the MBC (Pseudomonas aeruginosa [18]) was over 256 µg/mL, the MBC (Pseudomonas aeruginosa [19]) was over 256 µg/mL and the MIC [20] was 256 µg/mL (≈ 263 µM). It also gave an MIC [21] of 256 µg/mL (≈ 263 µM), an MIC [22] of over 256 µg/mL and an MIC [23] of 256 µg/mL (≈ 263 µM). It also gave an MIC [24] of over 256 µg/mL, an MIC [25] of over 256 µg/mL and an MIC [26] of 256 µg/mL (≈ 263 µM). It also gave an MIC [27] of 256 µg/mL (≈ 263 µM), an MIC [28] of over 256 µg/mL and an MIC [29] of 256 µg/mL (≈ 263 µM). The MIC [30] was 256 µg/mL (≈ 263 µM), the MBC [31] was over 256 µg/mL and the MBC [32] was over 256 µg/mL. It also gave an MBC [33] of over 256 µg/mL, an MBC [34] of over 256 µg/mL and an MBC [35] of over 256 µg/mL. The MBC [36] was over 256 µg/mL, the MBC [37] was over 256 µg/mL and the MBC [38] was over 256 µg/mL. It also gave an MBC [39] of over 256 µg/mL, an MBC [40] of over 256 µg/mL and an MBC [41] of over 256 µg/mL. For the same compound, the MBC [42] was over 256 µg/mL.

From ChEMBL document CHEMBL3400015, “Tertiary amides of Salinomycin: A new group of antibacterial agents against Bacillus anthracis and methicillin-resistant Staphylococcus epidermidis” (Bioorg Med Chem Lett, 2015)
